Data taken from BindingDB's records for doi:10.3109/14756366.2010.518965 (Guangzhou Institutes of Biomedicine and Health, Chinese …, 2011).
Counter-ions that a name gives are not always drawn.

What was measured:
Assay in all cases: UDP-glucuronosyltransferase Activity Assay
[1] = molecular target: T1, UDP-glucuronosyltransferase 1A1 (Homo sapiens, UniProt P22309)
T1 sequence (P22309 whole entry): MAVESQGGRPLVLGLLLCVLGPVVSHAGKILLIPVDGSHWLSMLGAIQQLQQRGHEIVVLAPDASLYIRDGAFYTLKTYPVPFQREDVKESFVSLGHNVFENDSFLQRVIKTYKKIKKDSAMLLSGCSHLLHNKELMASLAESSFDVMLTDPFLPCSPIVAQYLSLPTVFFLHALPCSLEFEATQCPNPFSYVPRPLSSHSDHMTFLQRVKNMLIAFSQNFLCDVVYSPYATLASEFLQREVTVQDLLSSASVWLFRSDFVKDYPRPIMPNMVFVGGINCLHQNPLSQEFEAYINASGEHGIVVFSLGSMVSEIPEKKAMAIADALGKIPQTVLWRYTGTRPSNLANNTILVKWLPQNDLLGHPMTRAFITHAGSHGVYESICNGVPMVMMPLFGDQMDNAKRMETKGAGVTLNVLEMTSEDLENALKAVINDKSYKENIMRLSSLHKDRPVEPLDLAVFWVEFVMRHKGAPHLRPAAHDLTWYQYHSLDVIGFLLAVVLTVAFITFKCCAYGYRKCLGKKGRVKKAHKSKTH

[2] = molecular target: T2, UDP-glucuronosyltransferase 2B7 (Homo sapiens, UniProt P16662)
T2 sequence (P16662 whole entry): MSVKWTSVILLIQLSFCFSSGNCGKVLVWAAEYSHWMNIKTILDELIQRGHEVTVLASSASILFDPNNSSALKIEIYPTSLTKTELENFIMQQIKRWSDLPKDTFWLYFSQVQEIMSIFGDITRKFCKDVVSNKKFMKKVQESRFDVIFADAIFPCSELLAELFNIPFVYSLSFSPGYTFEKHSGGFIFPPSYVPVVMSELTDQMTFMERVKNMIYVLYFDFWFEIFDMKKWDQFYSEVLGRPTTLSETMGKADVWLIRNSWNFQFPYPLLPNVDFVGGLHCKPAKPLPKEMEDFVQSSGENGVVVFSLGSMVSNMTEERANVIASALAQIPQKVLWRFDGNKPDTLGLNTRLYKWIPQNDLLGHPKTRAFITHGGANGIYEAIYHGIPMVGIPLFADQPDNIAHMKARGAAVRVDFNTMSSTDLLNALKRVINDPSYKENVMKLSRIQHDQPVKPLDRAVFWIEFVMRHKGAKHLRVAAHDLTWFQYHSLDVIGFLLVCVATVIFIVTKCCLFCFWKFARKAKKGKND

[3] = molecular target: T3, UDP-glucuronosyltransferase 1A4 (Homo sapiens, UniProt P22310)
T3 sequence (P22310 whole entry): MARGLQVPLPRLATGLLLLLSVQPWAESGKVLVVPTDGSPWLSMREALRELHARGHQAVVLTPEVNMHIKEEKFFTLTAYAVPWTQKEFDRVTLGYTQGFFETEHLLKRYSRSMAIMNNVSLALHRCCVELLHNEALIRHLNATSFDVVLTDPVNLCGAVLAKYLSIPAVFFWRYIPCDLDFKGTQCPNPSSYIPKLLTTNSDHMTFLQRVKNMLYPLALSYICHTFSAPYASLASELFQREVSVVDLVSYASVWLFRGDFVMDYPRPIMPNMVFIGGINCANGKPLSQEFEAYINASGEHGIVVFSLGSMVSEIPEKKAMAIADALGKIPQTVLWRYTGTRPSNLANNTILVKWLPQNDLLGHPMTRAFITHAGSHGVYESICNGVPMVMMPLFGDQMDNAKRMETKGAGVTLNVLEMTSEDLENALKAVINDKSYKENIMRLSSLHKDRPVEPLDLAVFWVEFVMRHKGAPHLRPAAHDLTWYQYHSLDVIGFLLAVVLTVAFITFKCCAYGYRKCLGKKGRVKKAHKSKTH

[4] = molecular target: T4, UDP-glucuronosyltransferase 1-6 (Homo sapiens, UniProt P19224)
T4 sequence (P19224 whole entry): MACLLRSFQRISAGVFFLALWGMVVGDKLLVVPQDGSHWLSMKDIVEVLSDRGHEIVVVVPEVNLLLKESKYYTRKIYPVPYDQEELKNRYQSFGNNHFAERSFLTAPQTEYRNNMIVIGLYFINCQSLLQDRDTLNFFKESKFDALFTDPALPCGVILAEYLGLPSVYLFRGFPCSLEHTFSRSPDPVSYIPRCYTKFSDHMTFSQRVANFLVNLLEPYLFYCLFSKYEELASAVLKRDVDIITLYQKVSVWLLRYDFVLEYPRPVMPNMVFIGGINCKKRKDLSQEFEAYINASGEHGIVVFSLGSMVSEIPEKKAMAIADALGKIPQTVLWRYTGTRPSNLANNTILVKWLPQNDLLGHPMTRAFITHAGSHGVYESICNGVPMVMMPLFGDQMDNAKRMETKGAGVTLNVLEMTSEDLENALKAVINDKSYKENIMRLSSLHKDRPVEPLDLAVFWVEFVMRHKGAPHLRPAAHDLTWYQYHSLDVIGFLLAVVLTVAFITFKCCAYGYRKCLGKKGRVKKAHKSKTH

[5] = molecular target: T5, UDP-glucuronosyltransferase 2B10 (Homo sapiens, UniProt P36537)
T5 sequence (P36537 whole entry): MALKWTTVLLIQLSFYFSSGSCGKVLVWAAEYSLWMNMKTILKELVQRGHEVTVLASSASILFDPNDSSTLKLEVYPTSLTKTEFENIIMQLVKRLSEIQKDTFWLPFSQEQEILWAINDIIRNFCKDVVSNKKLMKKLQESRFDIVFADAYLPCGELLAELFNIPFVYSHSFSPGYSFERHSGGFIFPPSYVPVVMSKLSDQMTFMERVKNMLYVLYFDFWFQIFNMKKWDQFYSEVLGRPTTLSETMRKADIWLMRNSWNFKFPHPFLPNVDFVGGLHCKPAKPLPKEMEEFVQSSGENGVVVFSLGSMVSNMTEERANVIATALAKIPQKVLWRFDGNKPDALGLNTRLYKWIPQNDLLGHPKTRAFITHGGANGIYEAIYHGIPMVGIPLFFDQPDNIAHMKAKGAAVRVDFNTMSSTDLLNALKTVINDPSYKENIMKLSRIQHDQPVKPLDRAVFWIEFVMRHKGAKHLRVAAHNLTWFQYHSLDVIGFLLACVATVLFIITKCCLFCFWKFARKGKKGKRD

Row | Structure (SMILES) | IC50 [1] | IC50 [2] | IC50 [3] | IC50 [4] | IC50 [5]
1 | CCCCNC(=O)NS(=O)(=O)c1ccc(C)cc1 [1-Butyl-3-(p-methylphenylsulfonyl)urea] | > 300 µM | > 300 µM | > 300 µM | 281 µM | > 300 µM
2 | Cc1ncc2n1-c1ccc(Cl)cc1C(c1ccccc1F)=NC2 [12-chloro-9-(2-fluorophenyl)-3-methyl-2,4,8-triazatricyclo[8.4.0.0^{2,6}]tetradeca-1(10),3,5,8,11,13-hexaene] | 26 µM | 147 µM | – | 23 µM | 106 µM
3 | O=c1cc(-c2ccccc2)oc2c1ccc1ccccc12 | 38 µM | 149 µM | 23 µM | 67 µM | > 300 µM
4 | CCOc1ccc(NC(C)=O)cc1 [ACETPHENETIDIN] | > 300 µM | > 300 µM | > 300 µM | > 300 µM | > 300 µM
5 | COc1ccc2[nH]c([S+]([O-])Cc3ncc(C)c(OC)c3C)nc2c1 (stereo not given) [H-168/68] | 56 µM | > 300 µM | > 300 µM | 185 µM | > 300 µM
6 | CC[C@@]1(c2ccccc2)NC(=O)N(C)C1=O [(5S)-5-Ethyl-3-methyl-5-phenyl-2,4-imidazolidinedione] | > 300 µM | > 300 µM | > 300 µM | > 300 µM | > 300 µM
7 | C=C[C@H]1C[N@@]2CC[C@H]1C[C@@H]2[C@@H](O)c1ccnc2ccc(OC)cc12 [(6-Methoxy-quinolin-4-yl)-(5-vinyl-1-aza-bicyclo[2.2.2]oct-2-yl)-methanol] | > 300 µM | > 300 µM | 166 µM | > 300 µM | > 300 µM
8 | Nc1ccc(S(=O)(=O)Nc2ccnn2-c2ccccc2)cc1 | > 300 µM | > 300 µM | > 300 µM | > 300 µM | > 300 µM
9 | CO[C@H]1C[C@H](O[C@H]2[C@H](C)[C@@H](O[C@@H]3O[C@H](C)C[C@H](N(C)C)[C@H]3O)[C@@H](C)C[C@@]3(CO3)C(=O)[C@H](C)[C@@H](O)[C@@H](C)[C@@H](C)OC(=O)[C@@H]2C)O[C@@H](C)[C@@H]1O [Oleandomycin] | 44 µM | 272 µM | 59 µM | > 300 µM | > 300 µM
10 | CC(=O)O[C@H]1C(=O)[C@@]2(C)[C@H]([C@H](OC(=O)c3ccccc3)[C@]3(O)C[C@H](OC(=O)[C@H](O)[C@@H](NC(=O)c4ccccc4)c4ccccc4)C(C)=C1C3(C)C)[C@]1(OC(C)=O)CO[C@@H]1C[C@@H]2O | 20 µM | > 300 µM | 4.9 µM | 74 µM | > 300 µM
11 | CC(=O)N1CCN(c2ccc(OC[C@@H]3CO[C@@](Cn4ccnc4)(c4ccc(Cl)cc4Cl)O3)cc2)CC1 [Nizoral] | 4.1 µM | 60 µM | 58 µM | 19 µM | 22 µM
12 | Cc1nc2c([nH]1)c(=O)n(C)c(=O)n2Cc1ccco1 [furafylline] | > 300 µM | > 300 µM | > 300 µM | > 300 µM | > 300 µM
13 | COc1ccc2c(c1)[C@@]13CCCC[C@@H]1[C@@H](C2)N(C)CC3 [Dextromethorphan] | > 300 µM | > 300 µM | 89 µM | > 300 µM | 62 µM
14 | O=c1ccc2ccccc2o1 [2H-chromen-2-one] | > 300 µM | > 300 µM | > 300 µM | > 300 µM | > 300 µM
15 | CC(NC(C)(C)C)C(=O)c1cccc(Cl)c1 (stereo not given) [BUPROPION HYDROCHLORIDE] | > 300 µM | > 300 µM | 152 µM | > 300 µM | 88 µM
16 | C[C@]12CC[C@H]3[C@@H](CCC4=CC(=O)CC[C@@]43C)[C@@H]1CC[C@@H]2O [Testosterone, 1] | 43 µM | 165 µM | – | > 300 µM | > 300 µM
17 | Cc1ncsc1CCCl [Chlormethiazole] | > 300 µM | > 300 µM | > 300 µM | > 300 µM | > 300 µM
18 | O=C(O)Cc1ccccc1Nc1c(Cl)cccc1Cl [{2-[(2,6-dichlorophenyl)amino]phenyl}acetic acid] | 155 µM | – | 192 µM | – | –
